In patent US9115170B2, “Methods and compositions related to internalizing RGD peptides” (Sanford-Burnham Medical Research Institute, priority 2008, dated 2015):

Legend:
[1] = test system: αv integrins; settings: Koivunen et al. 1993, 1995; cited from earlier work
[2] = test system: PPC1 cells; assay: In vitro phage binding assay; type: cell-based, human; settings: for effect of trypsin treatment on binding to PPC1 cells: treatment with trypsin; for phage binding to cells: PPC1 cells, 1 hour at 4° C., phage-displayed peptide
Description: (§1) PPC1 cells were incubated with the phage for 1 hour at 4° C. (A) or 37° C. (B). Phage that bound to the cell surface (A) or those that had internalized into the cells (B) were rescued for titration.
(§2) FIGS. 8A and 8B show the binding (A) and internalization (B) of phage displaying CG7C (control phage), iRGD1, and iRGD1 mutants that carry an alanine substitution for each amino acid (underlined) (SEQ ID NOs:1 and 304-310). PPC1 cells were incubated with the phage for 1 hour at 4° C. (A) or 37° C. (B). Phage that bound to the cell surface (A) or those that internalized into the cells were rescued for titration.
(§3) PPC1 cells were incubated with the phage for 1 hour at 4° C. (A) or 37° C. (B). Phage that bound to the cell surface (A) or those that had internalized into the cells were rescued for titration.
(§4) Suspended cells (10^6 cells in DMEM containing 1% BSA) were incubated with 10^8 pfu/ml of T7 phage for 1 hr at 4° C. The cells were washed 4 times with the binding buffer, lysed with lysogeny broth containing 1% NP-40, and titrated. Phage internalization assays used the same procedure, except that the cells were incubated with phage at 37° C., and that an acidic buffer (500 mM sodium chloride, 0.1 M glycine, 1% BSA, pH 2.5) was substituted for the binding buffer in the second wash. Inhibitors of binding and internalization were added 20 min prior to incubation with phage. Non-infectious phage were prepared by treating phage with UV for 8 min in DMEM containing 1% BSA. The resulting UV-inactivated phage particles expressing about 200 peptides per particle were used as multivalent inhibitors. Free synthetic peptides, mouse antibodies against human α1, α2, αvβ3, αvβ5, α5β1, α4, or αv integrins and integrin subunits (Chemicon), goat anti-rat neuropilin-1 (R&D Systems, Minneapolis, Minn.), with mouse and a goat IgG isotype controls (Abcam) were also tested.

[3] = test system: orthotopic 22Rv-1 human prostate cancer xenografts; assay: Confocal microscopy of tumors after injection of peptides, phage and micelles; type: in vivo, mice; settings: free peptides 2 hrs, phage 15 min, micelles 3 hrs circulation
Description: (§5) Statistical analysis was performed with Student's t-test.

[4] = test system: PPC1 cells; assay: In vitro phage internalization assay; type: cell-based, human; settings: for phage internalization into cells: 1 hour at 37° C., acid wash, phage-displayed peptide
Description: as §1, §2, §3
To assess the internalization, the phage that bound to the cell surface were removed by washing the cells with acid buffer before phage titration. […] Statistical analysis was performed with Student's t-test. n=3, error bars represent s.d.
Mice were maintained in accordance with institutional guidelines and the animal experiments were approved by the Animal Research Committees at University of California, Santa Barbara and San Francisco. We used transgenic tumor mice (Bardeesy and DePinho, (2002); Arbeit et al., Progressive squamous epithelial neoplasia in K14-human papillomavirus type 16 transgenic mice. J. Virol. 68, 4358-4368 (1994); Hanahan, Heritable formation of pancreatic β-cell tumors in transgenic mice expressing recombinant insulin/simian virus 40 oncogenes. Nature 315, 115-122 (1985)) and xenograft tumors generated by injecting BALB/c nude mice (Harlan Sprague Dawley, Indianapolis, Ind.) with 10^6 human cancer cells orthotopically, intracardiacly or into the brain and tibia. […] Phage homing studies in vivo and cell binding studies in vitro (Zhang et al., (2006)), immunofluorescence (Karmali et al. (2008)) and flow cytometry (Sugahara et al., Hyaluronan oligosaccharides induce CD44 cleavage and promote cell migration in CD44-expressing tumor cells. J. Biol. Chem. 278, 32259-32265 (2003)) were done as described. Whole body imaging was performed 3 hrs after injecting the Cy7-labelled micelles with the Odyssey Infrared Imaging System (LI-COR Biosciences, Lincoln, Nebr.). In phage internalization assays, the cells were treated with 10^9 plaque forming units (pfu) of phage for 1 hr at 37° C., washed with an acidic buffer (glycine-HCl, pH 2.5) to remove and inactivate phage bound to the cell surface, and lysed for phage titration. Peptide internalization was studied by incubating cells with 20 μM of FAM-labelled peptide for 90 min at 37° C. […] To inhibit the binding and/or internalization of the phage, synthetic peptides or phage rendered non-infectious by UV-irradiation were added to the cells 20 min before incubation with the test phage. FAM-labelled peptides in tissues were quantified by measuring the fluorescence with Image J software. Student's t-test and one-way analysis of variance (ANOVA) followed by a suitable post hoc t-test were used for statistical analysis (Table 3).
as §4, with “Free synthetic peptides, mouse antibodies against human α1, α2, αvβ3, αvβ5, α5β1, α4, or αv integrins and integrin subunits (Chemicon), goat anti-rat neuropilin-1 (R&D Systems, Minneapolis, Minn.), with mouse and a goat IgG isotype controls (Abcam) were also tested.” left out

[5] = test system: PPC1 cells; assay: Confocal microscopy of cells incubated with phage; type: cell-based, human
From the text: Phage bound to the cell surface were removed by washing the cells with a acidic buffer, and internalized phage were rescued and titrated.
The cells were stained for phage, neuropilin-1, and nuclei. The right panel is a high magnification view of the dotted area in the left panel. […] In almost all tumor ducts examined, αv integrins were positive. […] Scale bars=50 μm.
The cells were stained for phage (arrowed), neuropilin-1 (distal and flanking), and nuclei (central mass). The right panel of […] (SEQ ID NO:298) phage is a high magnification view of the dotted area in the left panel. […] Scale bars=10 μm.
Tissue sections were processed as described (Karmali et al. (2008)). Cells (2×10^5 cells) were grown on collagen I-coated coverslips (BD Biosciences, San Jose, Calif.) overnight, and incubated with 10^8 pfu/ml of T7 phage for 30 min. The cells were fixed in 4% paraformaldehyde, and stained with antibodies and DAPI (Molecular Probes, Eugene, Oreg.). The primary antibodies were rat anti-mouse CD31 monoclonal antibody (BD Biosciences), and rabbit anti-human αv integrin (Chemicon, Temecula, Calif.), rabbit anti-human neuropilin-1 (Chemicon), mouse anti-human neuropilin-1 (Miltenyi Biotec, Auburn, Calif.), and rabbit anti-T7 phage polyclonal antibodies. […]

[6] = test system: PPC1 cells; assay: Inhibition of iRGE phage internalization within PPC1 cells; type: cell-based, human; settings: non-infectious phage as inhibitor
Description: (§6) Statistical analyses were performed with ANOVA (a, b, d) or Student's t-test (c, e).
as §4

[7] = test system: PPC1 cells; assay: Inhibition of trypsin-treated iRGD phage binding to PPC1 cells; type: cell-based, human; settings: 4° C.; non-infectious phage as inhibitor
Description: as §6, §4

[8] = test system: PPC1 cells; assay: Inhibition of CRGDK phage binding to PPC1 cells; type: cell-based, human
Description: as §6, §4

[9] = test system: PPC1 cells; assay: Inhibition of iRGD phage internalization into PPC1 cells; type: cell-based, human; settings: 37° C.; inhibitor added before test phage
Description: (§7) Phage that bound to the cell surface were titered. B, PPC1 cells were treated as described in A except that they were co-incubated with iRGD1 or CG7C phage at 37° C. The internalized phage were rescued for titering as described in the legend for FIG. 5A.
(§8) A, PPC1 cells were pre-treated with or without series of anti-integrin antibodies, or with normal mouse IgG as a control, for 30 min at 4° C., followed by incubation with iRGD1 phage or CG7C control phage for 1 hour at 4° C. (A) or 37° C. (B). Phage that bound to the cell surface (A) or those that internalized into the cells (B) were rescued and titrated.
as §6
(§9) Suspended cells (10^6 cells in DMEM containing 1% BSA) were incubated with 10^8 pfu/ml of T7 phage for 1 hr at 4° C. The cells were washed 4 times with the binding buffer, lysed with lysogeny broth containing 1% NP-40, and titrated. Phage internalization assays used the same procedure, except that the cells were incubated with phage at 37° C., and that an acidic buffer (500 mM sodium chloride, 0.1 M glycine, 1% BSA, pH 2.5) was substituted for the binding buffer in the second wash. Inhibitors of binding and internalization were added 20 min prior to incubation with phage. Non-infectious phage were prepared by treating phage with UV for 8 min in DMEM containing 1% BSA. […]

[10] = test system: pancreatic ductal adenocarcinoma (PDAC) tumors; assay: In vivo homing of FAM-labelled peptide to PDAC tumors; parameters: species or system mice; settings: for effect of excess unlabelled peptide on accumulation of FAM-iRGD in tumors: 10-fold excess injected 30 min before FAM-iRGD
Description: FIGS. 3A and 3B show tumor homing of iRGD1 peptide into murine pancreatic carcinoma. A, 200 μg of […] iRGD1 peptide was injected through the tail vein into transgenic mice with pancreatic ductal adenocarcinoma (PDAC) and the peptide was allowed to circulate for 4.5 hrs. B, An excess of non-labeled iRGD1 (2 mg/mouse) was injected into the PDAC mice 30 min prior to the injection of the […] iRGD1 peptide as described in A. Shown are harvested organs observed under UV light (left) and white light (right).
Approximately 200 μg of FAM-iRGD1 was injected into mice bearing PDACs and allowed to circulate for 15 min (A), 30 min (B), 2 hrs (C) and 4.5 hrs (D). The nuclear staining with DAPI and vascular endothelial cell staining with an anti-CD31 antibody, respectively are shown. Note that at 15 (A) to 30 min (B) post-injection of FAM-iRGD1, the dye stays in the vessels (arrows) or in the cells surrounding the vessels (A, arrowheads in window at the right upper corner), but no vascular staining with the peptides is observed after 2 hrs (C, arrow) or 4.5 hrs (D, arrow). At 30 min post peptide injection, the peptide fluorescence appears in tumor glands (B, main panel and upper right corner inset); some individual cells within the tumor are strongly positive after 2 hrs (C, asterisks) and 4.5 hrs (D, asterisk).
as §5
Approximately 200 μg of […] iRGD1 peptide (FAM-iRGD1) was injected through the tail vein into immuno-deficient mice bearing xenograft of PPC1 human prostate carcinoma, MIA PaCa-2 human pancreatic carcinoma, or MDA-MB-435 human breast carcinoma and was allowed to circulate for 4.5 hrs (FIG. 2). […] Confocal microscopy of PDAC tumor sections from animals injected with FAM-iRGD1 indicated time-dependent in vivo homing dynamics for this peptide. […] The peptide fluorescence associated with the tumors cells was condensed into the perinuclear area of the tumor cells (FIGS. 4C and 4D, asterisks).

[11] = test system: M21 cells; assay: CRGDK phage binding and internalization, M21 cells; type: cell-based, human
Description: as §6, §4

[12] = test system: PPC1 cells; assay: Inhibition of iRGD phage binding to PPC1 cells; type: cell-based, human; settings: 4° C.; inhibitor added before test phage
Description: as §7, §8, §9

[13] = test system: M21 human melanoma cells; assay: iRGD phage binding to M21 cells; type: cell-based
Description: as §4

CRGDC
affinity for αv integrins [1]: strong affinity
effect of trypsin treatment on binding to PPC1 cells [2]: no effect
distribution within tumor (confocal microscopy) [3]: accumulated only in and around tumor blood vessels

CRGDKG [CRGDKG phage]
phage binding to cells [2]: bound
phage internalization into cells [4]: internalized

CRGDRGPDC [iRGD2]
phage binding to cells [2]: similar
phage internalization into cells [4]: similar

CRGDGGPDC
co-localization with neuropilin-1 (confocal microscopy) [5]: did not co-localize
internalization into cells (confocal microscopy) [5]: nor did they internalize

RPARPAR [RPARPAR phage]
inhibition of iRGE phage internalization within PPC1 cells [6]: inhibited the internalization
inhibition of binding of trypsin-treated iRGD phage [7]: blocked
inhibition of CRGDK phage binding to PPC1 cells [8]: dose-dependently inhibited
inhibition of iRGD phage internalization into PPC1 cells [9]: blocked

CRG [CRG phage]
phage binding to cells [2]: did not
phage internalization into cells [4]: did not

CDCRGDCFC [RGD-4C]
affinity for αv integrins [1]: strong affinity
effect of trypsin treatment on binding to PPC1 cells [2]: no effect
distribution within tumor (confocal microscopy) [3]: accumulated only in and around tumor blood vessels

CRGEKGPDC [iRGE, reference compound]
effect of excess unlabelled peptide on accumulation of FAM-iRGD in tumors [10]: did not have the same effect

CRGDK [CRGDK phage]
inhibition of iRGE phage internalization within PPC1 cells [6]: inhibited the internalization
binding to M21 cells with different αv integrin expression levels [11]: binds similarly
phage binding to M21 cells with minimal expression of neuropilin-1 [11]: did not substantially bind
phage internalization into M21 cells with minimal expression of neuropilin-1 ([11]; 1 hour at 37° C.): did not substantially bind to or internalize
increase of binding by forced expression of neuropilin-1 ([11]; M21 cells transfected with neuropilin-1 cDNA): 3.5 fold
increase of internalization by forced expression of neuropilin-1 ([11]; M21 cells transfected with neuropilin-1 cDNA, not shown): 3.5 fold
internalization relative to iRGD phage ([11]; M21 cells, 1 hour at 37° C.): reversed
phage binding to cells [2]: bound to
internalization relative to iRGD phage ([4]; 37° C.): more efficiently than iRGD phage
phage internalization into cells [4]: internalized
inhibition of iRGD phage internalization into PPC1 cells [9]: blocked

CRGDKGPDC [iRGD1]
inhibition of iRGD phage binding to PPC1 cells [12]: inhibited in a dose-dependent manner
effect of excess unlabeled peptide on accumulation of FAM-iRGD1 in PDAC tumors ([10]; 2 mg/mouse 30 min prior to FAM-iRGD1): inhibited the accumulation
effect of excess unlabelled peptide on accumulation of FAM-iRGD in tumors [10]: greatly reduced
binding to M21 cells that express both αvβ3 and αvβ5 [13]: bound
binding to M21 variants lacking expression of αvβ3 and αvβ5 [13]: did not

CRGDKGPEC [iRGD3]
phage binding to cells [2]: similar
phage internalization into cells [4]: similar

CRGD [CRGD phage]
phage binding to cells [2]: did not
phage internalization into cells [4]: did not
